In US20070167631A1, “Novel herbicides” (priority 2003, published 2007):

Legend:
Type in all cases: in vivo
Abutilon = assay: Pre-emergence herbicidal action (Example B1); details: 250 g/ha, after 4 weeks, rating scale 10=total damage, 0=no action
Method: (§1) Monocotyledonous and dicotyledonous test plants are sown in standard soil in pots or seed trays. Immediately after sowing, the test compounds, in the form of an aqueous suspension (prepared from a wettable powder (Example F3, b) according to WO 97/34485) or in the form of an emulsion (prepared from an emulsifiable concentrate (Example F1, c) according to WO 97/34485), are applied by spraying in a concentration of 250 g/ha. The test plants are then grown in a greenhouse under optimum conditions. After a test duration of 4 weeks, the test is evaluated in accordance with a scale of eleven ratings (10=total damage, 0=no action). Ratings of from 10 to 7 (especially from 10 to 8) indicate very good to good herbicidal action.

Amaranthus [1] = assay: Pre-emergence herbicidal action (Example B1); details: 250 g/ha, after 4 weeks, rating scale 10=total damage, 0=no action
Method: as §1

Chenopodium [2] = assay: Pre-emergence herbicidal action (Example B1); details: 250 g/ha, after 4 weeks, rating scale 10=total damage, 0=no action
Method: as §1

Digitaria = assay: Pre-emergence herbicidal action (Example B1); details: 250 g/ha, after 4 weeks, rating scale 10=total damage, 0=no action
Method: as §1

Echinochloa [3] = assay: Pre-emergence herbicidal action (Example B1); details: 250 g/ha, after 4 weeks, rating scale 10=total damage, 0=no action
Method: as §1

Panicum [4] = assay: Pre-emergence herbicidal action (Example B1); details: 250 g/ha, after 4 weeks, rating scale 10=total damage, 0=no action
Method: as §1

Scirpus = assay: Pre-emergence herbicidal action (Example B1); details: 250 g/ha, after 4 weeks, rating scale 10=total damage, 0=no action
Method: as §1

Amaranthus [5] = assay: Post-emergence herbicidal action (Example B2); details: 250 g/ha, after about 18 days, rating scale 10=total damage, 0=no action
Text: (§2) Monocotyledonous and dicotyledonous test plants are cultivated in a greenhouse in standard soil in plastic pots and, at the 4- to 6-leaf stage, are sprayed with an aqueous suspension of the test compounds of formula I prepared from a 25% wettable powder (Example F3, b) according to WO 97/34485) or with an emulsion of the test compounds of formula I prepared from a 25% emulsifiable concentrate (Example F1, c) according to WO 97/34485), corresponding to concentrations of 125 and 250 g of active ingredient per hectare (500 litres of water per ha). The test plants are then grown on in the greenhouse under optimum conditions. After a test duration of about 18 days, the test is evaluated in accordance with a scale of eleven ratings (10=total damage, 0=no action). Ratings of from 10 to 7 (especially from 10 to 8) indicate very good to good herbicidal action.

Chenopodium [6] = assay: Post-emergence herbicidal action (Example B2); details: 250 g/ha, after about 18 days, rating scale 10=total damage, 0=no action
Text: as §2

Echinochloa [7] = assay: Post-emergence herbicidal action (Example B2); details: 250 g/ha, after about 18 days, rating scale 10=total damage, 0=no action
Text: as §2

Euphorbia = assay: Post-emergence herbicidal action (Example B2); details: 250 g/ha, after about 18 days, rating scale 10=total damage, 0=no action
Text: as §2

Panicum [8] = assay: Post-emergence herbicidal action (Example B2); details: 250 g/ha, after about 18 days, rating scale 10=total damage, 0=no action
Text: as §2

Stellaria = assay: Post-emergence herbicidal action (Example B2); details: 250 g/ha, after about 18 days, rating scale 10=total damage, 0=no action
Text: as §2

Xanthium = assay: Post-emergence herbicidal action (Example B2); details: 250 g/ha, after about 18 days, rating scale 10=total damage, 0=no action
Text: as §2

| Compound | Pre-emergence action: Abutilon (Abutilon) | Pre-emergence action: Amaranthus (Amaranthus [1]) | Pre-emergence action: Chenopodium (Chenopodium [2]) | Pre-emergence action: Digitaria (Digitaria) | Pre-emergence action: Echinochloa (Echinochloa [3]) | Pre-emergence action: Panicum (Panicum [4]) | Pre-emergence action: Scirpus (Scirpus) | Post-emergence action: Amaranthus (Amaranthus [5]) | Post-emergence action: Chenopodium (Chenopodium [6]) | Post-emergence action: Echinochloa (Echinochloa [7]) | Post-emergence action: Euphorbia (Euphorbia) | Post-emergence action: Panicum (Panicum [8]) | Post-emergence action: Stellaria (Stellaria) | Post-emergence action: Xanthium (Xanthium) |
| --- | --- | --- | --- | --- | --- | --- | --- | --- | --- | --- | --- | --- | --- | --- |
| CC1(C)C(=O)C(C(=O)c2ccc(C(F)(F)F)c(N3CCOCC3)n2)=C(O)C(C)(C)C1=O [Compound 2.073] | 9 | 9 | 9 | 7 | 9 | 10 | 4 | 9 | 8 | 9 | 9 | 9 | 7 | 9 |
| Cc1nc(C(=O)C2=C(O)C(C)(C)C(=O)C(C)(C)C2=O)ccc1C(F)(F)F [Compound 2.203] | 10 | 9 |  | 5 | 9 | 6 | 8 | 6 | 6 | 9 | 9 | 9 | 9 | 9 |
| CC1(C)C(=O)C(C(=O)c2ccc(C(F)(F)F)c(C3(C)OCCO3)n2)=C(O)C(C)(C)C1=O [Compound 2.191] | 10 | 7 | 9 | 7 | 10 | 10 | 3 | 3 | 7 | 8 | 8 | 9 | 10 | 8 |
| CC1CCC(O)=C(C(=O)c2ccc(C(F)(F)F)c(N3CCOCC3)n2)C1=O (stereo not shown) [Compound 3.071] | 9 | 8 | 6 | 10 | 10 | 10 | 8 | 8 | 10 | 8 | 7 | 9 | 8 | 8 |
| CC1CC(=O)C(C(=O)c2ccc(C(F)(F)F)c(N3CCOCC3)n2)=C(O)C1 (stereo not shown) [Compound 3.069] | 10 | 10 | 6 | 10 | 10 | 10 | 5 | 8 | 10 | 7 | 5 | 8 | 7 | 8 |
| CC(=O)N(C)c1nc(C(=O)C2=C(O)C(C)(C)C(=O)C(C)(C)C2=O)ccc1C(F)(F)F [Compound 2.088] | 9 |  | 7 | 9 | 7 | 9 | 0 |  |  |  |  |  |  |  |
| CC1CC(O)=C(C(=O)c2ccc(C(F)(F)F)c(N3CCOCC3)n2)C(=O)C1(C)C (stereo not shown) [Compound 3.073] | 5 | 0 | 7 | 9 | 7 | 10 | 7 | 4 | 9 | 8 | 7 | 7 | 7 | 7 |
| O=C1CCCC(O)=C1C(=O)c1ccc(C(F)(F)F)c(N2CCOCC2)n1 [Compound 1.073] | 10 | 6 | 10 | 10 | 10 | 10 |  | 10 | 8 | 9 | 9 | 10 | 9 | 9 |
| CN(C)c1nc(C(=O)C2=C(O)C(C)(C)C(=O)C(C)(C)C2=O)ccc1C(F)(F)F [Compound 2.059] | 10 | 7 | 9 | 7 | 8 | 7 |  | 7 | 10 | 8 | 6 | 5 | 8 | 7 |
